Our source for the MIC values is DBAASP.

Converted amounts (≈) assume the structure as drawn.

Some test systems named below: Bacillus cereus; Escherichia coli; Staphylococcus aureus; Escherichia coli UB1005; Bacillus subtilis 168.
What all share (assay): ≥ marks a high value that may be exact or a test limit, other limits are often not marked, values filed in µg/mL are converted to µM
Assay [1] concerns Escherichia coli ATCC 25922.
Assay [2] concerns Salmonella enterica subsp. enterica serovar Typhimurium C77-31.
Assay [3] relates to Staphylococcus aureus ATCC 25923.
In assay [4] the test system is Staphylococcus aureus ATCC 29213.
The subject of assay [5] is Staphylococcus epidermidis ATCC 12228.
The test system of assay [6] is Escherichia coli NCTC 10418.
Assay [7] concerns Staphylococcus aureus NCTC 10788.
The test system of assay [8] is Enterococcus faecalis ATCC 29212.
The subject of assay [9] is Pseudomonas aeruginosa ATCC 27853.
Assay [10] has as its system Salmonella enterica subsp. enterica serovar Pullorum C79-13.
The test system of assay [11] is Salmonella enterica subsp. enterica serovar Typhimurium ATCC 14028.

Usually MIC stands for the least concentration at which growth counts as inhibited. Turning to `CC(C)C[C@H](NC(=O)[C@H](CCCCN)NC(=O)[C@H](Cc1ccccc1)NC(=O)[C@@H](NC(=O)[C@@H](NC(=O)CNC(=O)[C@H](CC(C)C)NC(=O)[C@@H](N)Cc1ccccc1)C(C)C)C(C)C)C(=O)N[C@@H](C)C(=O)N[C@@H](CO)C(=O)N[C@@H](CCCCN)C(=O)N[C@H](C(=O)N[C@@H](Cc1ccccc1)C(=O)NCC(=O)N[C@@H](C)C(=O)N[C@H](C(=O)N[C@@H](Cc1ccccc1)C(=O)N[C@@H](CCCCN)C(=O)N[C@@H](CCCCN)C(=O)N[C@H](C(=O)O)C(C)C)C(C)C)C(C)C` [FLGVVFKLASKVFGAVFKKV], the MIC is 3.66 µM (≈ 8 µg/mL) in the assay on Bacillus cereus, 117 µM (≈ 256 µg/mL) in the assay with Escherichia coli and 3.66 µM (≈ 8 µg/mL) against Staphylococcus aureus.

For the compound `CC[C@H](C)[C@H](NC(=O)[C@H](CCCCN)NC(=O)CNC(=O)[C@@H](NC(=O)[C@H](C)NC(=O)[C@H](CO)NC(=O)[C@@H](N)CC(C)C)C(C)C)C(=O)N[C@@H](C)C(=O)N[C@@H](CO)C(=O)N[C@@H](CCCCN)C(=O)N[C@H](C(=O)N[C@H](C(=O)N1CCC[C@H]1C(=O)N[C@@H](CO)C(=O)N[C@H](C(=O)N[C@H](C(=O)NCC(=O)N[C@@H](C)C(=O)N[C@@H](Cc1ccccc1)C(=O)N[C@@H](CCCCN)C(=O)O)[C@@H](C)CC)C(C)C)C(C)C)C(C)C` [LSAVGKIASKVVPSVIGAFK], the MIC is no less than 130 µM with Bacillus cereus and greater than 130 µM against Escherichia coli.

For `CC(C)C[C@H](NC(=O)[C@@H](N)Cc1ccccc1)C(=O)NCC(=O)N[C@H](C(=O)N[C@H](C(=O)N[C@@H](Cc1ccccc1)C(=O)N[C@@H](CCCCN)C(=O)N[C@@H](CCCCN)C(=O)N[C@@H](C)C(=O)N[C@@H](CO)C(=O)N[C@@H](CCCCN)C(=O)N[C@H](C(=O)N[C@@H](Cc1ccccc1)C(=O)N1CCC[C@H]1C(=O)N[C@@H](C)C(=O)N[C@H](C(=O)N[C@@H](Cc1ccccc1)C(=O)N[C@@H](CCCCN)C(=O)N[C@@H](CCCCN)C(=O)N[C@H](C(=O)O)C(C)C)C(C)C)C(C)C)C(C)C)C(C)C` [FLGVVFKKASKVFPAVFKKV], the values for the MIC against Bacillus cereus, against Escherichia coli and with Staphylococcus aureus were no less than 114 µM, 114 µM (≈ 256 µg/mL) and greater than 114 µM, respectively.

`CC[C@H](C)[C@H](NC(=O)[C@H](CO)NC(=O)[C@H](CS)NC(=O)[C@H](Cc1ccc(O)cc1)NC(=O)[C@@H](NC(=O)[C@H](C)NC(=O)[C@@H]1CCCN1C(=O)[C@H](Cc1ccccc1)NC(=O)[C@@H](NC(=O)[C@H](CCCCN)NC(=O)[C@H](CO)NC(=O)[C@H](C)NC(=O)[C@@H](NC(=O)[C@H](CCCN=C(N)N)NC(=O)CNC(=O)[C@H](CC(C)C)NC(=O)[C@H](C)NC(=O)[C@@H](N)CO)C(C)C)C(C)C)C(C)C)C(=O)N[C@H](C(=O)N[C@@H](CCCCN)C(=O)O)[C@@H](C)O` [SALGRVASKVFPAVYCSITK]: the MIC in the assay with Bacillus cereus was no less than 122 µM; against Escherichia coli it was greater than 122 µM.

With `CC[C@H](C)[C@H](NC(=O)[C@@H]1CCCN1C(=O)[C@@H]1CCCN1)C(=O)N[C@H](C(=O)NCC(=O)N[C@@H](CO)C(=O)N[C@H](C(=O)N1CCC[C@H]1C(=O)N[C@@H](CC(C)C)C(=O)NCC(=O)N[C@@H](CS)C(=O)NCC(N)=O)[C@@H](C)CC)C(C)C` [PPIVGSIPLGCG], the MIC in assay [1] was greater than 128 µM; in the assay on Escherichia coli UB1005, no less than 128 µM; in assay [2], no less than 128 µM; in assay [3] it was greater than 128 µM; in assay [4], greater than 128 µM; in [5], greater than 128 µM.

In the case of `CC[C@H](C)[C@H](NC(=O)[C@H](CC(C)C)NC(=O)[C@H](CO)NC(=O)[C@H](C)NC(=O)[C@@H](NC(=O)[C@H](C)NC(=O)CNC(=O)[C@H](CCCCN)NC(=O)[C@H](Cc1ccccc1)NC(=O)[C@H](CCCCN)NC(=O)[C@@H](NC(=O)[C@H](C)NC(=O)[C@@H](NC(=O)[C@@H](NC(=O)[C@@H]1CCCN1C(=O)[C@H](CO)NC(=O)[C@H](CO)NC(=O)[C@@H](NC(=O)CN)C(C)C)[C@@H](C)CC)C(C)C)C(C)C)C(C)C)C(=O)N[C@@H](CCCCN)C(=O)O` [GVSSPIVAVKFKGAVASLIK], the MIC with Bacillus cereus was no less than 130 µM; against Escherichia coli, greater than 130 µM.

As for `CC[C@H](C)[C@H](NC(=O)[C@H](CCSC)NC(=O)[C@H](CO)NC(=O)[C@H](Cc1ccccc1)NC(=O)[C@@H](NC(=O)[C@H](CO)NC(=O)[C@@H]1CCCN1C(=O)[C@@H](NC(=O)[C@@H](NC(=O)[C@H](CCCCN)NC(=O)[C@H](CO)NC(=O)[C@H](C)NC(=O)[C@H](CC(C)C)NC(=O)[C@H](CCCCN)NC(=O)CNC(=O)[C@@H](NC(=O)[C@@H](NC(=O)[C@@H]1CCCN1)C(C)C)[C@@H](C)CC)C(C)C)C(C)C)C(C)C)C(=O)N[C@@H](CCCCN)C(=O)N[C@@H](CCCN=C(N)N)C(=O)O` [PVIGKLASKVVPSVFSMIKR], the MIC is no less than 119 µM in the assay on Bacillus cereus and greater than 119 µM against Escherichia coli.

With `CC[C@H](C)[C@H](NC(=O)CNC(=O)[C@H](CO)NC(=O)[C@H](CC(C)C)NC(=O)[C@H](Cc1cnc[nH]1)NC(=O)[C@@H]1CCCN1C(=O)[C@H](CC(C)C)NC(=O)[C@H](CC(C)C)NC(=O)[C@H](CCC(=O)O)NC(=O)[C@H](CCCCN)NC(=O)[C@@H](NC(=O)[C@@H](N)Cc1ccccc1)[C@@H](C)CC)C(=O)N[C@H](C(=O)N[C@@H](CC(=O)O)C(=O)N[C@@H](CO)C(=O)N[C@H](C(=O)N[C@@H](C)C(=O)N[C@@H](CC(N)=O)C(=O)N[C@@H](C)C(=O)N[C@H](C(=O)N[C@@H](CCCCN)C(N)=O)[C@@H](C)CC)C(C)C)[C@@H](C)CC` [FIKELLPHLSGIIDSVANAIK], the MIC in assay [6] is no less than 110 µM; in assay [7] it was no less than 55 µM.

`CC[C@H](C)[C@H](NC(=O)[C@H](CCCCN)NC(=O)[C@H](CCCCN)NC(=O)[C@H](Cc1ccccc1)NC(=O)[C@H](CC(C)C)NC(=O)[C@H](CCCCN)NC(=O)[C@H](Cc1c[nH]c2ccccc12)NC(=O)[C@@H](N)CCCCN)C(=O)N[C@@H](Cc1c[nH]c2ccccc12)C(=O)N[C@@H](Cc1c[nH]c2ccccc12)C(=O)N1CCC[C@H]1C(=O)N[C@@H](Cc1ccccc1)C(=O)N[C@@H](CC(C)C)C(=O)N[C@@H](CCCN=C(N)N)C(=O)N[C@@H](CCCN=C(N)N)C(N)=O` [KWKLFKKIWWPFLRR]: the MIC amounted to 2 µM (≈ 4.26 µg/mL) in assay [8]; 4 µM (≈ 8.53 µg/mL) in the assay on Escherichia coli UB1005; 4 µM (≈ 8.53 µg/mL) in assay [9]; 4 µM (≈ 8.53 µg/mL) in assay [10]; 4 µM (≈ 8.53 µg/mL) in assay [11]; 2 µM (≈ 4.26 µg/mL) in assay [2]. The compound further had an MIC in assay [5] of 2 µM (≈ 4.26 µg/mL).

As for `CC[C@H](C)[C@H](NC(=O)[C@H](CS)NC(=O)[C@H](CCSC)NC(=O)[C@H](CS)NC(=O)[C@H](CCCN=C(N)N)NC(=O)[C@@H](N)CC(C)C)C(=O)N[C@@H](CCCCN)C(=O)N[C@@H](Cc1c[nH]c2ccccc12)C(=O)N[C@@H](Cc1c[nH]c2ccccc12)C(=O)N[C@@H](CO)C(=O)NCC(=O)N[C@@H](CCCCN)C(=O)N[C@@H](Cc1cnc[nH]1)C(=O)N1CCC[C@H]1C(=O)N[C@@H](CCCCN)C(=O)O` [LRCMCIKWWSGKHPK], the MIC against Bacillus subtilis 168 was 7 µM (≈ 13.1 µg/mL).

Turning to `CC[C@H](C)[C@H](NC(=O)CNC(=O)[C@@H](NC(=O)[C@H](CCCCN)NC(=O)[C@H](C)NC(=O)[C@@H](NC(=O)[C@H](C)NC(=O)[C@H](CO)NC(=O)[C@H](CO)NC(=O)[C@H](Cc1ccccc1)NC(=O)[C@H](CC(C)C)NC(=O)[C@@H](NC(=O)[C@@H]1CCCN1C(=O)[C@@H](N)CC(C)C)C(C)C)[C@@H](C)CC)C(C)C)C(=O)N[C@@H](CCCCN)C(=O)N[C@@H](CC(C)C)C(=O)NCC(=O)N[C@@H](C)C(=O)N[C@@H](CCCCN)C(=O)N[C@H](C(=O)O)C(C)C` [LPVLFSSAIAKVGIKLGAKV], the values for the minimum inhibitory concentration (MIC) against Bacillus cereus and with Escherichia coli were no less than 127 µM and greater than 127 µM, respectively.

Take `CC(C)C[C@H](NC(=O)[C@@H](N)Cc1ccccc1)C(=O)NCC(=O)N[C@H](C(=O)N[C@H](C(=O)N[C@@H](Cc1ccccc1)C(=O)N[C@@H](CCCCN)C(=O)N[C@@H](CCCCN)C(=O)N[C@@H](C)C(=O)N[C@@H](CO)C(=O)N[C@@H](CCCCN)C(=O)N[C@H](C(=O)N[C@@H](Cc1ccccc1)C(=O)N[C@@H](CCCCN)C(=O)N[C@@H](C)C(=O)N[C@H](C(=O)N[C@@H](Cc1ccccc1)C(=O)NCC(=O)N[C@@H](CCCCN)C(=O)N[C@H](C(=O)O)C(C)C)C(C)C)C(C)C)C(C)C)C(C)C` [FLGVVFKKASKVFKAVFGKV]: the MIC against Bacillus cereus was 14.5 µM (≈ 32 µg/mL); in the assay with Escherichia coli, 14.5 µM (≈ 32 µg/mL); in the assay with Staphylococcus aureus, 116 µM (≈ 256 µg/mL).

With `CC(C)[C@H](NC(=O)[C@H](Cc1ccccc1)NC(=O)[C@@H](NC(=O)[C@@H](NC(=O)[C@@H](NC(=O)[C@H](CCCCN)NC(=O)[C@H](C)NC(=O)[C@@H](N)[C@@H](C)O)C(C)C)C(C)C)C(C)C)C(=O)N[C@@H](CO)C(=O)N[C@@H](Cc1ccccc1)C(=O)N[C@@H](CO)C(=O)N[C@@H](Cc1ccc(O)cc1)C(=O)N[C@H](C(=O)N[C@H](C(=O)N1CCC[C@H]1C(=O)N[C@@H](CCCCN)C(=O)N[C@@H](CCCCN)C(=O)N[C@@H](CCCN=C(N)N)C(=O)N[C@@H](C)C(=O)N[C@@H](CS)C(=O)O)C(C)C)C(C)C` [TAKVVVFVSFSYVVPKKRAC], the MIC against Bacillus cereus was no less than 115 µM; in the assay with Escherichia coli, greater than 115 µM.
